Target: T1, human Kv3.2 channels (hKv3.2) (Homo sapiens, UniProt Q96PR1)
T1 construct: expressed in transfected cells
T1 sequence (Q96PR1 1-638): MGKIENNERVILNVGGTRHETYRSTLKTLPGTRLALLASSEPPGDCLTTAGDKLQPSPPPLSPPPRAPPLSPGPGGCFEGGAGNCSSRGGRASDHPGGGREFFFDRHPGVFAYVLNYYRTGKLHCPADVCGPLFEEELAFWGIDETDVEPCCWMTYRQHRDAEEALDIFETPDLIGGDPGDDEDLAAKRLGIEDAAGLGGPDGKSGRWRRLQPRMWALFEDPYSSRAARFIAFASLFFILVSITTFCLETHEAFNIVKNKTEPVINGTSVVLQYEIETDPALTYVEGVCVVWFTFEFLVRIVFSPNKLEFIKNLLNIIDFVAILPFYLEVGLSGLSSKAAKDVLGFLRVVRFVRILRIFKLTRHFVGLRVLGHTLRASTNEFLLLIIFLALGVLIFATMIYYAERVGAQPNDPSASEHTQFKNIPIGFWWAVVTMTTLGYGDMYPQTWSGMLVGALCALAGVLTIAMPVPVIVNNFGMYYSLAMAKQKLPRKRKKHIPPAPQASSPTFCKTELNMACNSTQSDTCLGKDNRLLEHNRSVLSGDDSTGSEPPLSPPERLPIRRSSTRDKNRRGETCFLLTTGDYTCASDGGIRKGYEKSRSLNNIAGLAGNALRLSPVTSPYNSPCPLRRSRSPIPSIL
Assay: IonWorks Quattro electrophysiology, hKv3.2 currents, activation time constant (Tauact)
Format: cell-based
Details: hKv3.2, -15 mV pulse
Experimental: The ability of the compounds of the disclosure to modulate the voltage-gated potassium channel subtypes Kv3.2/3.1 may be determined using the following assay.
To assess compound effects on human Kv3.2 channels (hKv3.2), a stable cell line expressing hKv3.2 was created by transfecting Chinese Hamster Ovary (CHO)-K1 cells with a pCIH5-hKv3.2 vector. Cells were cultured in DMEM/F12 medium supplemented by 10% Foetal Bovine Serum, 1× non-essential amino acids (Invitrogen) and 500 ug/ml of Hygromycin-B (Invitrogen). Cells were grown and maintained at 37° C. in a humidified environment containing 5% CO2 in air.
The day of the experiment, cells were removed from the incubator and the culture medium removed. Cells were washed with 5 ml of Dulbecco's PBS (DPBS) calcium and magnesium free and detached by the addition of 3 ml Versene (Invitrogen, Italy) followed by a brief incubation at 37° C. for 5 minutes. The flask was tapped to dislodge cells and 10 ml of DPBS containing calcium and magnesium was added to prepare a cell suspension. The cell suspension was then placed into a 15 ml centrifuge tube and centrifuged for 2 min at 1200 rpm. After centrifugation, the supernatant was removed and the cell pellet re-suspended in 4 ml of DPBS containing calcium and magnesium using a 5 ml pipette to break up the pellet. Cell suspension volume was then corrected to give a cell concentration for the assay of approximately 3 million cells per ml.
Experiments were conducted at room temperature using IonWorks Quattro™ planar array electrophysiology technology (Molecular Devices Corp.) with PatchPlate™ PPC. Stimulation protocols and data acquisition were carried out using a microcomputer (Dell Pentium 4). Planar electrode hole resistances(Rp) were determined by applying a 10 mV voltage step across each well. These measurements were performed before cell addition. […] Following this, amphotericin-B solution was added to the intracellular face of the electrode to achieve intracellular access. Cells were held at −70 mV. Leak subtraction was conducted in all experiments by applying 50 ms hyperpolarizing (10 mV) prepulses to evoke leak currents followed by a 20 ms period at the holding potential before test pulses. From the holding potential of −70 mV, a first test pulse to −15 mV was applied for 100 ms and following a further 100 ms at −70 mV, a second pulse to 40 mV was applied for 50 ms. Cells were then maintained for a further 100 ms at −100 mV and then a voltage ramp from −100 mV to 40 mV was applied over 200 ms. In all experiments, the test pulses protocol was performed in the absence (pre-read) and presence (post-read) of the test compound. Pre- and post-reads were separated by the compound addition followed by a 3 minute incubation.
The intracellular solution contained the following (in mM): K-gluconate 100, KCl 54, MgCl2 3.2, HEPES 5, adjusted to pH 7.3 with KOH. Amphotericin-B solution was prepared as 50 mg/ml stock solution in DMSO and diluted to a final working concentration of 0.1 mg/ml in intracellular solution.
The final assay dilution was 200 and the final compound concentrations were in the range 50 μM to 50 nM.
The recordings were analysed and filtered using both seal resistance (>20 MΩ) and peak current amplitude (>500 pA at the voltage step of 40 mV) in the absence of compound to eliminate unsuitable cells from further analysis. Kv3 channel-mediated outward currents were measured determined from the mean amplitude of the current over the final 10 ms of the −15 mV voltage pulse minus the mean baseline current at −70 mV over a 10 ms period just prior to the −15 mV step. This Kv3 channel currents following addition of the test compound were then compared with the currents recorded prior to compound addition. […] The normalised data were analysed using ActivityBase or Excel software.

[1] = compound 0.8 μM (concentration giving ~0.3 nA current)
[2] = compound 0.4 μM (concentration giving ~0.3 nA current)
[3] = compound 3.1 μM (concentration giving ~0.3 nA current)
[4] = compound 1.6 μM (concentration giving ~0.3 nA current)

SMILES: CC[C@H]1NC(=O)N(c2ccc(Oc3ccc(C#N)c(C(C)C)c3)nc2)C1=O [RE4, 4-({5-[(4R)-4-ethyl-2,5-dioxo-1-imidazolidinyl]-2-pyridinyl}oxy)-2-(1-methylethyl)benzonitrile]
- Tauact mean [1]: 9.2 ms

SMILES: CC[C@H]1NC(=O)N(c2ccc(Oc3ccc(C#N)cc3C(C)(C)C)nc2)C1=O [RE3, 3-(1,1-dimethylethyl)-4-({5-[(4R)-4-ethyl-2,5-dioxo-1-imidazolidinyl]-2-pyridinyl}oxy)benzonitrile]
- Tauact mean (compound 0.2 μM (concentration giving ~0.3 nA current)): 23.0 ms

SMILES: CC[C@H]1NC(=O)N(c2ccc(Oc3ccc(C)c4c3C3(CC3)CO4)nc2)C1=O [Example 62, (5R)-5-ethyl-3-[6-(7-methylspiro[2H-benzofuran-3,1′-cyclopropane]-4-yl)oxy-3-pyridyl]imidazolidine-2,4-dione]
- Tauact mean [2]: 34.8 ms

SMILES: CC[C@H]1NC(=O)N(c2ccc(Oc3ccc(C#N)c(OC(C)C)c3)nc2)C1=O [RE8, 4-({5-[(4R)-4-ethyl-2,5-dioxo-1-imidazolidinyl]-2-pyridinyl}oxy)-2-[(1-methylethyl)oxy]benzonitrile]
- Tauact mean [3]: 9.7 ms

SMILES: CC[C@@]1(C)NC(=O)N(c2cnc(Oc3ccc(C)c4c3C3(CC3)CO4)nc2)C1=O [Example 51, (5R)-5-ethyl-5-methyl-3-[2-(7-methylspiro[2H-benzofuran-3,1′-cyclopropane]-4-yl)oxypyrimidin-5-yl]imidazolidine-2,4-dione]
- Tauact mean [4]: 21.3 ms

SMILES: CC1COc2cccc(Oc3ccc(N4C(=O)NC(C)(C)C4=O)cn3)c2C1 (single isomer, unassigned) [Example 25, 5,5-dimethyl-3-{6-[(3-methyl-3,4-dihydro-2H-chromen-5-yl)oxy]-3-pyridinyl}-2,4-imidazolidinedione]
- Tauact mean (compound 6.25 μM (concentration giving ~0.3 nA current)): 7.87 ms

SMILES: CC[C@H]1NC(=O)N(c2cnc(Oc3ccc(C)c4c3C3(CC3)CO4)nc2)C1=O [Example 61, (5R)-5-ethyl-3-[2-(7-methylspiro[2H-benzofuran-3,1′-cyclopropane]-4-yl)oxypyrimidin-5-yl]imidazolidine-2,4-dione]
- Tauact mean [1]: 31.5 ms

SMILES: CC[C@H]1NC(=O)N(c2ccc(Oc3ccc(C#N)cc3C3CC3)nc2)C1=O [RE5, 3-cyclopropyl-4-({5-[(4R)-4-ethyl-2,5-dioxo-1-imidazolidinyl]-2-pyridinyl}oxy)benzonitrile]
- Tauact mean [3]: 13.0 ms

SMILES: CC[C@H]1NC(=O)N(c2ccc(Oc3ccc(C#N)c(OC(F)(F)F)c3)nc2)C1=O [RE7, 4-({5-[(4R)-4-ethyl-2,5-dioxo-1-imidazolidinyl]-2-pyridinyl}oxy)-2-[(trifluoromethyl)oxy]benzonitrile]
- Tauact mean [3]: 10.4 ms

SMILES: CC1(C)NC(=O)N(c2ccc(Oc3cccc4c3C3(CC3)CO4)nc2)C1=O [Example 16, 5,5-dimethyl-3-[6-(spiro[1-benzofuran-3,1′-cyclopropan]-4-yloxy)-3-pyridinyl]-2,4-imidazolidinedione]
- Tauact mean [2]: 19.3 ms

SMILES: CC[C@@]1(C)NC(=O)N(c2ccc(Oc3ccc(C)c4c3C3(CC3)CO4)nc2)C1=O [Example 65, (5R)-5-ethyl-5-methyl-3-[6-(7-methylspiro[2H-benzofuran-3,1′-cyclopropane]-4-yl)oxy-3-pyridyl]imidazolidine-2,4-dione]
- Tauact mean [1]: 24.0 ms

SMILES: CC[C@H]1NC(=O)N(c2ccc(Oc3ccc(C)c4c3C(C)(C)CO4)nc2)C1=O [Example 63, (5R)-5-ethyl-3-{6-[(3,3,7-trimethyl-2,3-dihydro-1-benzofuran-4-yl)oxy]-3-pyridinyl}-2,4-imidazolidinedione]
- Tauact mean [2]: 28.0 ms

SMILES: CCc1cc(Oc2ccc(N3C(=O)N[C@H](CC)C3=O)cn2)ccc1C#N
- Tauact mean [3]: 8.2 ms

SMILES: CC[C@H]1NC(=O)N(c2cnc(Oc3ccc(C)c4c3C(C)(C)CO4)nc2)C1=O [Example 64, (5R)-5-ethyl-3-{2-[(3,3,7-trimethyl-2,3-dihydro-1-benzofuran-4-yl)oxy]-5-pyrimidinyl}-2,4-imidazolidinedione]
- Tauact mean [4]: 25.0 ms

From US11197859B2 (AUTIFONY THERAPEUTICS LIMITED, priority 2010, dated 2021)
